According to ChEMBL document CHEMBL1130892, “Novel cytokine release inhibitors. Part I: Triterpenes” (Bioorg Med Chem Lett, 1998):

What was measured:
[1] = Inhibitory activity against LPS-stimulated IL1-beta release by cultured human monocytes at a concentration 1000 nM; format: functional
Caspase-1 = target: T1, Caspase-1 (Homo sapiens, UniProt P29466); experiment: Inhibitory activity against IL-1 beta converting enzyme was evaluated.
T1 sequence (P29466 whole entry): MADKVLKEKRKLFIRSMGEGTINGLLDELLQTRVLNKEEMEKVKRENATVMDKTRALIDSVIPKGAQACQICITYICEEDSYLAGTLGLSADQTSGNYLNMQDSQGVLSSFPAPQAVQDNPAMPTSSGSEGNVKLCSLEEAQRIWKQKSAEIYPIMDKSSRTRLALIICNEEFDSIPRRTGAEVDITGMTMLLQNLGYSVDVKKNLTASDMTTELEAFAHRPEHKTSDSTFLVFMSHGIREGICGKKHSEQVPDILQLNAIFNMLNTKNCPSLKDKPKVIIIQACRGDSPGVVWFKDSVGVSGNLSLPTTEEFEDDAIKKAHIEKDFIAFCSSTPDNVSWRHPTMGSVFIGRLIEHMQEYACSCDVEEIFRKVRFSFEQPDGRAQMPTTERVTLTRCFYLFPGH

[2] = Inhibitory activity against LPS-stimulated 1L-1beta release by cultured human monocytes; format: functional
Rattus norvegicus = experiment: Compound was tested for reduction of streptococcal cell wall(SCW) in rats at a dose of 0.67 mg/kg; format: functional

SMILES	IC50 [2]	other results
COC(=O)[C@]1(C)CC[C@]2(C)CC[C@]3(C)C4=CCc5c(cc(OC)c(OC)c5C)[C@]4(C)CC[C@@]3(C)[C@@H]2C1	–	inhibition at 1 µM [1]: 8%
O=C1C=CC(=O)C=C1 [BENZOQUINONE]	–	IC50 (Caspase-1): 3000 nM
CC1=C(O)C(=O)C=C2C1=CC=C1[C@@]2(C)CC[C@@]2(C)[C@@H]3C[C@](C)(C(=O)O)CC[C@]3(C)CC[C@]12C [CELASTROL]	40 nM	–
COc1ccc2c(c1)c(CC(=O)O)c(C)n2C(=O)c1ccc(Cl)cc1 [INDOMETHACIN]	–	SCW reduction (Rattus norvegicus): 70%
COC(=O)[C@]1(C)CC[C@]2(C)CC[C@]3(C)C4=CC=C5C(=CC(=O)C(O)=C5C)[C@]4(C)CC[C@@]3(C)[C@@H]2C1 [PRISTIMERIN]	56 nM	–
COC(=O)[C@]1(C)CC[C@]2(C)CC[C@]3(C)C4=CCc5c(cc(OC(C)=O)c(OC(C)=O)c5C)[C@]4(C)CC[C@@]3(C)[C@@H]2C1 [PRISTIMEROL DIACETATE]	79 nM	–
COC(=O)[C@]1(C)CC[C@]2(C)CC[C@]3(C)C4=CCc5c(cc(O)c(O)c5C)[C@]4(C)CC[C@@]3(C)[C@@H]2C1 [PRISTIMEROL]	260 nM	–
CC1=C(O)C(=O)C=C2C1=CC=C1[C@@]2(C)CC[C@@]2(C)[C@@H]3C[C@@H](C)C(=O)C[C@]3(C)CC[C@]12C [TINGENONE]	58 nM	–
